Source: BindingDB's records for doi:10.1021/acs.jmedchem.5b01008 (Pfizer, 2015)
“And” between values parts separate entries of the source, which are not always exact repeats. Equal entries are not always repeated.

Experiments:
[1] = target: 2-acylglycerol O-acyltransferase 1 (MGAT1, MOGAT1) (Homo sapiens) (UniProt Q96PD6); test: Inhibition of MGAT1 (unknown origin) assessed as effect on incorporation of [1-14C]decanoyl moiety into DAG using [1-14C]decanoyl-CoA and 2-oleoylglycerol as substrates
Sequence of 2-acylglycerol O-acyltransferase 1 (MGAT1, MOGAT1) (Homo sapiens) (Q96PD6 whole entry, looked up): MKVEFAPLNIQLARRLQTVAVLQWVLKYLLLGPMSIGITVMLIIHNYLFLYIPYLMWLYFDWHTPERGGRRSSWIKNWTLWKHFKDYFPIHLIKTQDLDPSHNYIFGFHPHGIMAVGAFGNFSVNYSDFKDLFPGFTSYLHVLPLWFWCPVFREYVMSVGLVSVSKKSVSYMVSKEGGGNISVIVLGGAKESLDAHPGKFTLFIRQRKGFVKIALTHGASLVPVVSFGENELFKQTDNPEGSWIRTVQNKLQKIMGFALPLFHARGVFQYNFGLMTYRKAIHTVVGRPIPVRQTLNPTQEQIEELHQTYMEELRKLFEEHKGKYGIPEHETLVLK

[2] = target: 2-acylglycerol O-acyltransferase 3 (MGAT3, MOGAT3) (Homo sapiens) (UniProt Q86VF5); test: Inhibition of MGAT3 (unknown origin) assessed effect on incorporation of [1-14C]decanoyl moiety into triacylglycerol using [1-14C]decanoyl-CoA and 1,2-didecanoyl-sn-glycerol as substrates pre-incubated for 30 mins before substrate addition
Sequence of 2-acylglycerol O-acyltransferase 3 (MGAT3, MOGAT3) (Homo sapiens) (Q86VF5 whole entry, looked up): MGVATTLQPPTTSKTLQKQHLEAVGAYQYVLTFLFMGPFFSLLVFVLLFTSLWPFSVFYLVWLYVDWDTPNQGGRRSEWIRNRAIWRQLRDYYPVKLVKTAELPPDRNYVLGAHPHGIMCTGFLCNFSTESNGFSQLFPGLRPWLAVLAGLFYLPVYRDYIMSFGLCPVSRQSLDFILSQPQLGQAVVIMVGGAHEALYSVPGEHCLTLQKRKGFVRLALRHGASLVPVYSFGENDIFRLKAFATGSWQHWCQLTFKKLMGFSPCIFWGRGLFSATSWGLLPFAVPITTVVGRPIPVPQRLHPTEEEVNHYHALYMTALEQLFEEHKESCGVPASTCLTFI

[3] = target: 2-acylglycerol O-acyltransferase 3 (MGAT3, MOGAT3) (Homo sapiens) (UniProt Q86VF5); test: Inhibition of human MGAT3 expressed in HEK293 cells assessed as effect on incorporation of [1,3-14C] glycerol into TAG by TLC method in presence of DGAT1 inhibitor PF-04620110 and DGAT2 inhibitor PF-06424439

| SMILES | IC50 [1] | IC50 [2] | IC50 [3] |
| --- | --- | --- | --- |
| COc1cccc(CC(=O)N2Cc3ccc(S(=O)(=O)Nc4cnn(C5CCC5)n4)cc3C2)c1 | 14.9 µM and 14.8 µM | 92 nM and 100 nM | 205 nM and 204 nM |
| COc1cccc(CC(=O)N2Cc3ccc(S(=O)(=O)NCCc4cccc(F)c4)cc3C2)c1 | > 40 µM | 682 nM and 631 nM | – |
| COc1cccc(CC(=O)N2Cc3ccc(S(=O)(=O)Nc4cnn(C)n4)cc3C2)c1 | – | 3840 nM and 3980 nM | – |
| COc1cccc(CC(=O)N2Cc3ccc(S(=O)(=O)Nc4cnn(C5COC5)n4)cc3C2)c1 | – | 365 nM and 398 nM | – |
| COc1cccc(CC(=O)N2Cc3ccc(S(=O)(=O)Nc4cnn(-c5ccccc5)n4)cc3C2)c1 | – | 6 nM | – |
| COc1cccc(CC(=O)N2Cc3ccc(S(=O)(=O)Nc4cnn(-c5ccc(F)cc5)n4)cc3C2)c1 | – | 6 nM | – |
| COc1cccc(CC(=O)N2Cc3ccc(S(=O)(=O)Nc4cnn(C(C)C)n4)cc3C2)c1 | – | 597 nM and 631 nM | – |
| COc1cccc(CC(=O)N2Cc3ccc(S(=O)(=O)Nc4cnn(C5CC(F)(F)C5)n4)cc3C2)c1 | – | – | 394 nM and 389 nM |
| COc1cccc(CC(=O)N2Cc3ccc(S(=O)(=O)N(C)CCc4cccc(F)c4)cc3C2)c1 | – | 2740 nM and 2510 nM | – |
